What was measured:
[1] = system: CSF-1-induced bone marrow-derived macrophages (BMDM); experiment: CSF-1-induced murine-derived macrophage (BMDM) survival (CCK-8); assay type: cell-based, BALB/c mice; settings: Mus musculus, 168 h, murine-derived macrophages, 100 ng/mL CSF-1, 7 days, mean±SD, read-out: IC50 inhibition of cell survival, BMDM (CSF-1)
Method: BALB/c mice (female, 6 weeks old, healthy) were sacrificed. Bone marrow cells were taken from their femurs and tibia, and seeded into a 96-well culture plate at appropriate densities (90 µL per well) after erythrobiasis treatment. 100 ng/mL of CSF-1 factor was added to each well to induce macrophages (Bone marrow-derived macrophages, BMDM), and compounds at various concentrations were added and the plate was allowed for incubation for 7 days. A solvent control group (negative control) was set. After 7 day-exposure of the cells to the compounds, 10 µL of CCK-8 reagent was added to each well. The culture plate was placed in an incubator at 37° C. for 2-4 h, and then was read with a full-wavelength microplate reader setting at the wavelength of 450 nm.

[2] = system: CSF-1-induced human macrophages (PBMC-derived CD14+ monocytes); experiment: Survival of CSF-1-induced human macrophages from PBMC (CCK-8); assay type: cell-based; settings: 168 h; human-derived macrophages, 100 ng/mL CSF-1, 7 days; mean±SD; read-out: IC50 inhibition of cell survival, PBMC (CSF-1)
Method: Cryopreserved human-derived peripheral blood (peripheral blood from healthy donors) mononuclear cells (PBMCs) were taken out of liquid nitrogen for recovery. After recovery, the cells were re-suspended at 50 million/mL with the running buffer and DNAase I was added at a final concentration of 100 µg/mL and the plate was allowed for incubation for 15 min at room temperature. After centrifugation at 300 g for 5 min, the supernatant was discarded. The pellet was re-suspended at 50 million cells/mL with the running buffer, and the suspension was filtered through a 70 µM filter screen into a flow tube. The cells were sorted by using CD14+ monocyte negative selection beads sorting kit from […] company. According to the manufacture’s instructions, the specific experimental procedures were as follows.
After cells were re-suspended at 50 million cells/mL, 50 µL of the cocktail was added to each one mL of samples. The samples were incubated at room temperature for 5 min. The magnetic beads were vortexed for 30 sec, and added to the samples. The samples were incubated for further 5 min. The sample volumes were made up to 2.5 mL. The samples were placed on a magnetic frame ([…], #18000) for 2.5 min. […] The plate was placed in an incubator at 37° C. for 2-4 h, and then was read with an adjustable wavelength microplate reader setting at a wavelength of 450 nm.

[3] = cited from earlier work
M-NFS-60 cells = experiment: Proliferation of CSF-1R highly activated mouse myeloid leukemia cell M-NFS-60 (CCK-8); assay type: cell-based; settings: 72 h, read-out: IC50 inhibition of cell proliferation, M-NFS-60

Compound: FC(F)(F)c1ccc(CNc2ccc(Cc3c[nH]c4ncc(Cl)cc34)cn2)cn1 [PLX3397, Pexidartinib, reference compound]
- IC50 [1]: 48.9 ± 5.9 nM
- IC50 [2]: 237 ± 14.7 nM
- black box warning on drug label ([3]; drug label): risk of severe and potentially fatal liver injury
- IC50 (M-NFS-60 cells): 62.6 ± 15.8 nM

Compound: Bavencio: anti-PD-L1 antibody
- adverse response in treated patients ([3]; some of the patients): infusion-related response predominantly of grade 1-3 severity

Compound: Yervoy: an anti-CTLA-4 antibody
- patients experiencing immune-related adverse events ([3]; treated patients): up to 60%
- share of immune-related adverse events that were severe (grade 3-4) ([3]; treated patients): 10-30%

From patent US20230285389A1, “USE OF CSF-1R KINASE INHIBITOR” (Shanghai Runshi Medical Technology Co., Ltd, priority 2020, published 2023)
